Measured values: patent US20070004686A1, “Attractant for apple fruit moth and other insect pests of apple” (priority 2002, published 2007)
“Also recorded” adds a separate entry of the source.

How the values were obtained:
Type in all cases: in vivo
[1] = system: apple fruit moth Argyresthia conjugella; assay: Field trap attraction of apple fruit moth; details: for attraction of apple fruit moth females and males to field traps compared with blank: single compounds, 10 mg on red rubber septa in Tetra traps with sticky bottoms; for relative attractiveness for apple fruit moth among compounds and blends tested: field traps, 10 mg on red rubber septa, males and females
Method: (§1) The compounds eliciting a strong response from antennae of female apple fruit moth and codling moth were then all tested in field traps for attraction of insects. Compounds were applied at a standard dose of 10 mg on red rubber septa, the septa were mounted in Tetra traps with sticky bottoms (Arm et al. 1979).
Furthermore, 2-phenyl ethanol was tested in a series of 2-component blends, including all compounds which had shown some attractiveness by themselves.
(§2) Its attractivity can be augmented by blending it with anethole. […] Both sexes of Argyresthia conjugella were attracted. Attraction of females is of importance for monitoring the migration of mated females into orchards. Attraction of females enables population control by mass-trapping, by an attracticide formulation, or by disruption of mating and oviposition behaviour.

[2] = system: codling moth Cydia pomonella; assay: Field trap attraction of codling moth; details: traps baited with 10 mg
Method: as §1
In a wind tunnel experiment, a blend of farnesol and (E)-beta-farnesene released at 10 ng/min attracted within 2 min 35% of the males tested to the source (N=60).

other insects = assay: Field trapping experiment, species specificity (other insects); details: conditions tested (region, time of season)
Method: as §1, §2
Attraction of Argyresthia conjugella to 2-phenyl ethanol has not been reported, and the blend of 2-phenyl ethanol and anethole has not been described to be attractive for any other species.

| Structure (SMILES) | attraction of apple fruit moth females and males to field traps compared with blank [1] | attraction of codling moth males to baited traps [2] | also measured |
| --- | --- | --- | --- |
| C=CC(C)(O)CCC=C(C)C (stereo not drawn) [linalool, Linalool] | numbers significantly different from blank | – | – |
| CC/C=C\CC1=C(C)CCC1=O [cis-jasmone] | – | attracted in significant numbers | – |
| OCCc1ccccc1 [2-phenyl ethanol, 2-Phenyl ethanol] | numbers significantly different from blank; also recorded: attractant for both males and females | – | attraction of insects other than Argyresthia conjugella (species specificity) (other insects): no other insects were attracted in significant numbers; relative attractiveness for apple fruit moth among compounds and blends tested [1]: single most attractive compound |
| COc1ccc(C=O)cc1 [p-anisaldehyde, P-Anisaldehyde] | numbers significantly different from blank | attracted in significant numbers | – |
| CC(C)=CCCC(C)=CCCC(C)=CCO [farnesol, Farnesol] | – | attracted in significant numbers | – |
| CC/C=C\CCOC(=O)C(C)CC (stereo not drawn) [(Z)3-hexenyl 2-methylbutanoate] | – | attracted in significant numbers | – |
| CC=Cc1ccc(OC)cc1 [anethole, Anethole] | numbers significantly different from blank | attracted in significant numbers | relative attractiveness for apple fruit moth among compounds and blends tested ([1]; listed as Anethole): only a weak attractant |
